Where a name gives a salt, the structure may show the parent alone. Read-outs that look alike come from different tables or passages of the source.
Key:
[1] = biological target: T1, human EphB2-His ectodomain - human EphrinB2-Fc ectodomain (EphB2-EphrinB2 tetramer) (Homo sapiens, UniProt P29323+P52799); experiment: biochemical; settings: Octet IC50 data EB2-EphB2 (Absolute)
[2] = biological target: T1, human EphB2-His ectodomain - human EphrinB2-Fc ectodomain (EphB2-EphrinB2 tetramer); experiment: biochemical; settings: Octet IC50 data EB2-EphB2 (Relative)
[3] = biological target: T1, human EphB2-His ectodomain - human EphrinB2-Fc ectodomain (EphB2-EphrinB2 tetramer); experiment: biochemical
[4] = biological target: T1, human EphB2-His ectodomain - human EphrinB2-Fc ectodomain (EphB2-EphrinB2 tetramer); experiment: biochemical; remark: listed apart in the source
[5] = biological target: rat EphB1-Fc ectodomain - mouse EphrinB2-His ectodomain (EphB1-EphrinB2) (Rattus norvegicus; Mus musculus, UniProt P09759+P52800); experiment: biochemical
[6] = biological target: T1, human EphB2-His ectodomain - human EphrinB2-Fc ectodomain (EphB2-EphrinB2 tetramer); experiment: biochemical; settings: EphrinB2-EphB2 IC50 (Absolute, µM)
[7] = biological target: T1, human EphB2-His ectodomain - human EphrinB2-Fc ectodomain (EphB2-EphrinB2 tetramer); experiment: biochemical; settings: EphrinB2-EphB2 IC50 (Relative, µM)
[8] = biological target: EphrinB2 of mouse pancreatic stellate cells stimulated with mouse EphB2-Fc-His (Mus musculus, UniProt P52800+P54763); experiment: % pEphrinB2 by IP and immunoblot; type: cell-based
[9] = biological target: T1, human EphB2-His ectodomain - human EphrinB2-Fc ectodomain (EphB2-EphrinB2 tetramer); experiment: biochemical; remark: listed apart in the source
[10] = biological target: T1, human EphB2-His ectodomain - human EphrinB2-Fc ectodomain (EphB2-EphrinB2 tetramer); experiment: biochemical; remark: listed apart in the source
[11] = biological target: T1, human EphB2-His ectodomain - human EphrinB2-Fc ectodomain (EphB2-EphrinB2 tetramer); experiment: biochemical; remark: listed apart in the source
[12] = biological target: T1, human EphB2-His ectodomain - human EphrinB2-Fc ectodomain (EphB2-EphrinB2 tetramer); experiment: biochemical; remark: listed apart in the source
[13] = biological target: T1, human EphB2-His ectodomain - human EphrinB2-Fc ectodomain (EphB2-EphrinB2 tetramer); experiment: biochemical; remark: listed apart in the source
[14] = biological target: T1, human EphB2-His ectodomain - human EphrinB2-Fc ectodomain (EphB2-EphrinB2 tetramer); experiment: biochemical; remark: listed apart in the source
[15] = biological target: T1, human EphB2-His ectodomain - human EphrinB2-Fc ectodomain (EphB2-EphrinB2 tetramer); experiment: biochemical; remark: listed apart in the source
[16] = biological target: T1, human EphB2-His ectodomain - human EphrinB2-Fc ectodomain (EphB2-EphrinB2 tetramer); experiment: biochemical; remark: listed apart in the source
[17] = biological target: T1, human EphB2-His ectodomain - human EphrinB2-Fc ectodomain (EphB2-EphrinB2 tetramer); experiment: biochemical; remark: listed apart in the source
[18] = biological target: T1, human EphB2-His ectodomain - human EphrinB2-Fc ectodomain (EphB2-EphrinB2 tetramer); experiment: biochemical; remark: listed apart in the source
[19] = biological target: T1, human EphB2-His ectodomain - human EphrinB2-Fc ectodomain (EphB2-EphrinB2 tetramer); experiment: biochemical; remark: listed apart in the source

T1 sequence (P52799 28-229): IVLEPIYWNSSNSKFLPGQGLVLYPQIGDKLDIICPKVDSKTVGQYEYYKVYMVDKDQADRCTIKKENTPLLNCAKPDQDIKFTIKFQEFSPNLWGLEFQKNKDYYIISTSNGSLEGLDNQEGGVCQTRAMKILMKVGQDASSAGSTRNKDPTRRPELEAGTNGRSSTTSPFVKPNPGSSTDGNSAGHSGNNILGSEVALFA
T1 sequence (P29323 19-543): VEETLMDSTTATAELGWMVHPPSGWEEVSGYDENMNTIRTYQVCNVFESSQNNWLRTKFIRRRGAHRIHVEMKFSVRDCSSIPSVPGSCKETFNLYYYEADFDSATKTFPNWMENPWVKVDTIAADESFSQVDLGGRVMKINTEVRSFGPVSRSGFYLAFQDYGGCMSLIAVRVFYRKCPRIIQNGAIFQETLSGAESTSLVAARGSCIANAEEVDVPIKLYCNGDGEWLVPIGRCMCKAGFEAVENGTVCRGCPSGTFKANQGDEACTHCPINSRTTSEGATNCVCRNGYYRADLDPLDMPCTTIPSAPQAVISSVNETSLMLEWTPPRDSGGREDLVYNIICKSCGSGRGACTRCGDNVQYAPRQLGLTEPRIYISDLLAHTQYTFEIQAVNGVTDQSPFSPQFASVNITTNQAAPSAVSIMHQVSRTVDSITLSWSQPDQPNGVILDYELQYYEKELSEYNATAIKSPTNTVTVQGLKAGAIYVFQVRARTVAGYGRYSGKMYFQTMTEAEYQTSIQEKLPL
Sequence of rat EphB1-Fc ectodomain - mouse EphrinB2-His ectodomain (EphB1-EphrinB2) (P52800 29-232): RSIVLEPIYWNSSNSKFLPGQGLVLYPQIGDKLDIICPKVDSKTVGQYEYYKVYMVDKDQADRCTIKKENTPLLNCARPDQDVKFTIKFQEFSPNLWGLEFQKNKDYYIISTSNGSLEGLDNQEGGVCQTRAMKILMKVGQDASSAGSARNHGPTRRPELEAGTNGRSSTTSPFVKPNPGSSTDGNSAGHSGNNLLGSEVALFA
Sequence of rat EphB1-Fc ectodomain - mouse EphrinB2-His ectodomain (EphB1-EphrinB2) (P09759 18-538): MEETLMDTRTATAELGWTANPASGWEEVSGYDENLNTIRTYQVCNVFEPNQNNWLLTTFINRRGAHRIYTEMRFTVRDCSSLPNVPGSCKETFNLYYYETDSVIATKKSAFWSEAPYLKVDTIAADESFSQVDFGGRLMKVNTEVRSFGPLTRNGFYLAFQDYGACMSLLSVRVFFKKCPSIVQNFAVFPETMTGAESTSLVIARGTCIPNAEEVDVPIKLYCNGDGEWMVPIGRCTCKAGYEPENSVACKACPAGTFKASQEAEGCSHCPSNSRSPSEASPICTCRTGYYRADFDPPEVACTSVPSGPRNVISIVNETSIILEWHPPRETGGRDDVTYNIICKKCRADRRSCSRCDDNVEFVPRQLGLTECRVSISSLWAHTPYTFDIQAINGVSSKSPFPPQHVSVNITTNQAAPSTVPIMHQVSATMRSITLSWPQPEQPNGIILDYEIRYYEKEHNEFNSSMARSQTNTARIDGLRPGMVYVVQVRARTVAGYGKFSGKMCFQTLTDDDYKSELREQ
Sequence of EphrinB2 of mouse pancreatic stellate cells stimulated with mouse EphB2-Fc-His (P52800 29-336): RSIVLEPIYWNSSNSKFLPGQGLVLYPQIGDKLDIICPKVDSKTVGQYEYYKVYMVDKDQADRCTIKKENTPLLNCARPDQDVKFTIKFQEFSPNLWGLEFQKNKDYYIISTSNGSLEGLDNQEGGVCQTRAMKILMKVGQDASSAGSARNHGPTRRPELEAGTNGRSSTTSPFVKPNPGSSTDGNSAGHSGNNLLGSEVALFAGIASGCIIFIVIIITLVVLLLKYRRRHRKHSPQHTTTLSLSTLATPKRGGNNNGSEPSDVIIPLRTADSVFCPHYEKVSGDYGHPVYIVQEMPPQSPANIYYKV
Sequence of EphrinB2 of mouse pancreatic stellate cells stimulated with mouse EphB2-Fc-His (P54763 19-540): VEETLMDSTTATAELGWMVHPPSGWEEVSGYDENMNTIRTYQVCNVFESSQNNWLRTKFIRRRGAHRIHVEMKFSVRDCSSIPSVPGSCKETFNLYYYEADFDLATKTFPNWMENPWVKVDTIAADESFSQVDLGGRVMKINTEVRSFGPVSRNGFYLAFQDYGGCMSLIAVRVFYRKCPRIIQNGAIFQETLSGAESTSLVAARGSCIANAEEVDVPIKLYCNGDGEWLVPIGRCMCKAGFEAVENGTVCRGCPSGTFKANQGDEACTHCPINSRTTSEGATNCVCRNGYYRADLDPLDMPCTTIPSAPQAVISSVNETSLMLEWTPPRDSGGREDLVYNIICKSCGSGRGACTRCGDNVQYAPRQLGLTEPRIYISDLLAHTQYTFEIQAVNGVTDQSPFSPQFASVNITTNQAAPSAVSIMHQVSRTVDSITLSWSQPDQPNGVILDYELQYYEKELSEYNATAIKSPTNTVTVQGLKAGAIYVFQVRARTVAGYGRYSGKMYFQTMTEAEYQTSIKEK

Clc1cc2c(c3ncccc13)OCN(C1CCCC1)C2 [1b, 6-chloro-3-cyclopentyl-3,4-dihydro-2H-[1,3]oxazino[5,6-h]quinoline]
IC50 [1]: 1380 nM
IC50 [2]: 1200 nM

Clc1cc2c(c3ncccc13)OCN(C1CCCC1)C2 [1c, 6-chloro-3-cyclopentyl-3,4-dihydro-2H-[1,3]oxazino[5,6-h]quinoline]
IC50 [1]: 850 nM
IC50 [2]: 760 nM

O=C(Oc1c(Cl)cc(Cl)c2cccnc12)c1ccc([N+](=O)[O-])cc1 [4a, 5,7-dichloro-8-quinolinyl 4-nitrobenzoate]
IC50 [3]: 38000 nM
IC50 [4]: ~31600 nM

Clc1cc2c(c3ncccc13)OCN(CC1CCCO1)C2 (stereo not drawn) [4a, 6-chloro-3-((tetrahydrofuran-2-yl)methyl)-3,4-dihydro-2H-[1,3]oxazino[5,6-h]quinoline]
IC50 [1]: 810 nM
IC50 [2]: 720 nM

Oc1ccc(CN2CCOCC2)c2cccnc12 [A19, 5-(morpholinomethyl)quinolin-8-ol]
IC50 [5]: > 100000 nM
IC50 [6]: > 1.6 µM
IC50 [7]: > 1.6 µM

O=C(O)CN(CCN(CC(=O)O)CC(=O)O)CC(=O)O [EDTA]
IC50 [8]: 1100 nM

O=S1(=O)CCN(Cc2ccc(O)c3ncccc23)CC1 [QTM . 2 HCl, 4-((8-hydroxyquinolin-1-ium-5-yl)methyl)thiomorpholin-4-ium 1,1-dioxide chloride]
IC50 [5]: > 100000 nM
IC50 [6]: > 1.6 µM
IC50 [7]: 0.81 µM

Cc1ccnc(NC(c2cccc([N+](=O)[O-])c2)c2ccc3cccnc3c2O)c1 (stereo not drawn) [SW039339]
IC50 [9]: > 3200 nM

CCOc1cc(C(Nc2cc(C)ccn2)c2ccc3cccnc3c2O)ccc1O (stereo not drawn) [SW039498]
IC50 [9]: > 3200 nM
IC50 [10]: > 3200 nM

Oc1ccc(CSc2ccccc2)c2cccnc12 [SW160569, G15]
Ki [11]: 3.73 nM

CC(=O)Oc1ccccc1C(=O)O [compound 1, Aspirin]
IC50 [12]: > 100000 nM

Clc1cc2c(c3ncccc13)OCN(Cc1cccnc1)C2 [compound 2, 6-chloro-3-(pyridin-3-ylmethyl)-3,4-dihydro-2H-[1,3]oxazino[5,6-h]quinoline]
IC50 [1]: 850 nM
IC50 [2]: 740 nM

O=C(Oc1cccc2cccnc12)c1ccc(F)cc1 [compound 2, 8-quinolinyl 4-fluorobenzoate]
IC50 [3]: > 100000 nM
IC50 [13]: 100000 nM

CC(=O)Nc1ccc(O)cc1 [compound 2, Acetaminophen]
IC50 [12]: > 100000 nM

O=C(O)CN(CCOCCOCCN(CC(=O)O)CC(=O)O)CC(=O)O [compound 2, EGTA sodium salt]
IC50 [14]: > 3200 nM
IC50 [15]: > 3200 nM

CC(C)(C)N1COc2c(cc(Cl)c3cccnc23)C1 [compound 3, 3-(tert-butyl)-6-chloro-3,4-dihydro-2H-[1,3]oxazino[5,6-h]quinoline]
IC50 [1]: 1950 nM
IC50 [2]: 1780 nM

Oc1ccc(Cl)c2cccnc12 [compound 3, Cloxiquine]
IC50 [14]: > 3200 nM
IC50 [16]: ~3200 nM

O=C(O)c1ccc(-n2nc(-c3ccccc3O)nc2-c2ccccc2O)cc1 [compound 3, Deferasirox]
IC50 [17]: > 100000 nM

CC(C)Cc1ccc(C(C)C(=O)O)cc1 (stereo not drawn) [compound 3, Ibuprofen]
IC50 [12]: > 100000 nM

CCN(CC)CC(=O)Nc1c(C)cccc1C [compound 4, Lidocaine hydrochloride monohydrate]
IC50 [12]: > 100000 nM

CC1(C)CC(N2COc3c(cc(Cl)c4cccnc34)C2)CC(C)(C)N1 [compound 5, 6-chloro-3-(2,2,6,6-tetramethylpiperidin-4-yl)-3,4-dihydro-2H-[1,3]oxazino[5,6-h]quinoline]
IC50 [1]: 1740 nM
IC50 [2]: 1150 nM

CNC[C@H](O)c1cccc(O)c1 [compound 5, Phenylephrine hydrochloride]
IC50 [12]: > 100000 nM

CN(C)CCC(c1ccc(Cl)cc1)c1ccccn1 (stereo not drawn) [compound 6, Chloropheniramine maleate]
IC50 [12]: > 100000 nM

CCc1ccc(CCOc2ccc(CC3SC(=O)NC3=O)cc2)nc1 (stereo not drawn) [compound 7, Pioglitazone hydrochloride]
IC50 [12]: > 100000 nM

CCCCN1COc2c(cc(Cl)c3cccnc23)C1 [compound 8, 3-butyl-6-chloro-3,4-dihydro-2H-[1,3]oxazino[5,6-h]quinoline]
IC50 [1]: 1150 nM
IC50 [2]: 1050 nM

Cc1ncc(CO)c(CO)c1O [compound 8, Pyridoxine hydrochloride]
IC50 [12]: > 100000 nM

O=C(O)[C@@H](S)[C@@H](S)C(=O)O [compound 8, Succimer]
IC50 [18]: ~50000 nM
IC50 [19]: ~50000 nM

COCCN(CCCCc1ccc2c(n1)NCCC2)CC[C@H](Nc1ncnc2ccccc12)C(=O)O [compound 9, Bexotegrast]
IC50 [17]: > 100000 nM

O=C(O)Cc1ccccc1Nc1c(Cl)cccc1Cl [compound 9, Diclofenac sodium salt]
IC50 [12]: > 100000 nM

CC(c1ccccc1)N1COc2c(cc(Cl)c3cccnc23)C1 (stereo not drawn) [compound 10, 6-chloro-3-(1-phenylethyl)-3,4-dihydro-2H-[1,3]oxazino[5,6-h]quinoline]
IC50 [1]: 890 nM
IC50 [2]: 740 nM

N[C@@H](Cc1ccc(O)cc1)C(=O)O [compound 10, L-Tyrosine]
IC50 [12]: > 100000 nM

Clc1cc2c(c3ncccc13)OCN(CCc1ccccc1)C2 [compound 11, 6-chloro-3-phenethyl-3,4-dihydro-2H-[1,3]oxazino[5,6-h]quinoline]
IC50 [1]: 1150 nM
IC50 [2]: 1070 nM

Clc1cc2c(c3ncccc13)OCN(CCC1=CCCCC1)C2 [compound 12, 6-chloro-3-(2-(cyclohex-1-en-1-yl)ethyl)-3,4-dihydro-2H-[1,3]oxazino[5,6-h]quinoline]
IC50 [1]: 660 nM
IC50 [2]: 590 nM

Nc1nc2ncc(CNc3ccc(C(=O)N[C@@H](CCC(=O)O)C(=O)O)cc3)nc2c(=O)[nH]1 [compound 12, Folic acid]
IC50 [12]: > 100000 nM

From paper doi:10.64898/2025.12.08.692997v2 (biorxiv, 2025)
